The source of these data is patent US5202350A, “Furanone anti-inflammatory agents” (Bristol-Myers Squibb Co., priority 1991, dated 1993).

A value given as a limit tells only on which side of the number the result lay.

For assay [1], the target named is T1, human platelet phospholipase A2 (Homo sapiens, UniProt P14555).
T1 construct: The enzyme was isolated from human platelets; from tissue; host or cells: human platelets
T1 sequence (P14555 21-144): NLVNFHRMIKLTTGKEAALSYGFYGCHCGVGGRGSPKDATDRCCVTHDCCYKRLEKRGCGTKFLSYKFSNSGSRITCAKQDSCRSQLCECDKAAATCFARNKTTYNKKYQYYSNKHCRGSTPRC
The experiment in a line: PLA2 Inhibition Assay (14C-oleate labeled E. coli membrane substrate). The assay is classed as biochemical. To be noted: human platelet PLA2, pH 7, 37° C., 7 min preincubation, 30 min incubation. As for the experimental part: The utility of the compounds of the instant invention is shown by their inhibitory activity toward human platelet phospholipase A2 and their in vivo anti-inflammatory activity. The activity against human platelet phospholipase A2 was determined as described below:
The method used is similar to that reported by Franson, et al. [Jesse R. L. and Franson R. C., Biochim Biophys Acta 575:467-470 (1979), Franson R. C., Patriarca P., and Elsback P., J Lipid Res 15:380-388 (1974)]. The enzyme was isolated from human platelets. The substrate used consisted of ^14 C-oleate labeled Escherichia coli membranes. E. coli cells were grown in the presence of ^14 C-oleic acid and then autoclaved to prepare the membranes.
Various concentrations of test compounds are preincubated with PLA2 (3.6 μg/ml in a buffer consisting of 25 mM HEPES (pH 7), 150 mM NaCl, 5.0 mM CaCl2, and 10% DMSO (v/v, test compound solvent) at 37° C. for 7 minutes. The E. coli membrane substrate is then added (0.1 mM phospholipid, 0.005 μCi ^14 C) and the reaction is then incubated at 37° C. for 30 minutes. The reaction is terminated by the addition of 1.9 ml tetrahydrofuran (THF), and the entire solution is applied to a solid-phase extraction column (aminopropyl resin, Analytichem). The column is rinsed with an additional 1 ml of THF. The free fatty acid product of the reaction is then eluted from the column with 1 ml of 2% acetic acid (v/v) in THF and collected in a scintillation vial. The amount of free fatty acid product is determined by liquid scintillation counting. The amount of inhibition produced by the test compound is calculated by comparing the counts obtained in the presence of the compound to those obtained in its absence (solvent only). Background counts were determined by performing incubations in the absence of enzyme.
Percent inhibition is determined by the equation: [formula]
IC50 values (the concentration of inhibitor required to produce 50% inhibition) were determined by linear regression analysis of a plot of % inhibition versus log test compound concentration.

For a further assay, the system named is ears of CD-1 mice. Briefly: Inhibition of Phorbol-Ester-Induced inflammation (TPA ear edema). The assay is classed as in vivo. To be noted: topical, six hours. An excerpt: The method used is similar to that reported by Young, et al. [Young J. M., Wagner B. M., Spires D. A., J Invest Dermatol, 80:48-52(1983); DeYound L. M., Kheifets J. B., Ballaron S. J., Young J. M., Agents Actions 26:335-341 (1989)]. An inflammatory reaction is induced by the topical application of 0.01% (w/v) […] (TPA) to the ears of CD-1 mice. An acute inflammatory reaction is produced, resulting in ear edema. TPA, with and without various concentrations of test compound, was applied to the inner and outer aspects of the ear surface (10 μl/surface). After six hours, the mice were sacrificed and the ears removed. Ear tissue punches (5/16") were taken from each ear and weighed to measure edema.
The anti-inflammatory activity of the test compounds was determined by comparing the edema produced by TPA without test compound to that produced in its presence.
Percent inhibition values were determined by the equation: [formula]

Molecule `CCCCCCCCCCC1CC(O)OC1=O` (centres unmarked) [Example 3, 3-n-Decyl-5-Hydroxy-3,4-Dihydro-Furan-2-One] returned an IC50 in assay [1] of 525 µM. Consider `CCCCCCCCCCCC1CC(O)OC1=O` (centres unmarked) [Example 5, 3-n-Undecyl-5-Hydroxy-3,4-Dihydro-Furan-2-One], for which, in the assay with ears of CD-1 mice (dose 2.6% (w/v)), the “% Inhibition of Ear Edema” value is on record as 34.6%. Also, the half-maximal inhibitory concentration (IC50) in assay [1] stood at 17 µM.

In the case of `CCCCCCCCCCCCC1CC(O)OC1=O` (centres unmarked) [Example 7, 3-n-Dodecyl-5-Hydroxy-3,4-Dihydro-Furan-2-One], inhibition in assay [1] was half-maximal at 18 µM (IC50). For the molecule `O=C1OC(O)CC1CCCCCCCc1ccccc1` (centres unmarked) [Example 9], the 50% inhibitory concentration (IC50) in assay [1] was determined as 379 µM. The molecule `CCCCCC1CC(O)OC1=O` (centres unmarked) [Example 11, 3-n-Amyl-5-Hydroxy-3,4-Dihyro-Furan-2-One] yielded a concentration for half-maximal inhibition (IC50) in assay [1] greater than 500 µM. In the case of `CCCCCCCCCCCCCCCCC1CC(O)OC1=O` (centres unmarked) [Example 13, 3-n-Hexadecyl-5-Hydroxy-3,4-Dihydro-Furan-2-One], the “% Inhibition of Ear Edema” value in the assay with ears of CD-1 mice (dose 2.5% (w/v)) stood at 6.8%; in the assay with ears of CD-1 mice (dose 5.0% (w/v)), 24.6%; with ears of CD-1 mice (dose 7.5% (w/v)), 33.5%; in the assay on ears of CD-1 mice (dose 10% (w/v)) it was 45%. Moreover, the half-inhibitory concentration (IC50) in assay [1] came to 59 µM.

As a reminder, the IC50 is the concentration at which inhibition is half-maximal. A higher IC50 goes with a need for much substance.
